In ChEMBL document CHEMBL1131308, “Synthesis and biological activity of 4-amino-7-oxo-substituted analogues of 5-deaza-5,6,7,8-tetrahydrofolic acid and 5,10-dideaza-5, 6,7,8-tetrahydrofolic acid” (J Med Chem, 1998):
Values after ≈ are worked out from the molar mass of the structure shown.

tested on: CCRF-CEM; assay: In vitro inhibitory activity against CCRF-CEM human leukemia cells using cytotoxicity assay.; assay type: functional, cell-based

Structure (SMILES)	IC50 [µg/mL]
Nc1nc(N)c2c(n1)NC(=O)C(CCc1ccc(C(=O)NC(CCC(=O)O)C(=O)O)cc1)C2 (centres undefined)	39.2 (≈ 85.9 µM)
Nc1nc(N)c2c(n1)NC(=O)C(CNc1ccc(C(=O)O)cc1)C2 (centres undefined)	> 20
Nc1nc(N)c2c(n1)NC(=O)C(CNc1ccc(C(=O)NC(CCC(=O)O)C(=O)O)cc1)C2 (centres undefined)	> 20
COC(=O)c1ccc(NCC2Cc3c(N)nc(N)nc3NC2=O)cc1 (centres undefined)	> 20
COC(=O)c1ccc(CCC2Cc3c(N)nc(N)nc3NC2=O)cc1 (centres undefined)	> 20
Nc1nc(N)c2c(n1)NC(=O)C(CCc1ccc(C(=O)O)cc1)C2 (centres undefined)	6.7 (≈ 20.5 µM)
CN(CC1Cc2c(N)nc(N)nc2NC1=O)c1ccc(C(=O)NC(CCC(=O)O)C(=O)O)cc1 (centres undefined)	> 20
COC(=O)c1ccc(N(C)CC2Cc3c(N)nc(N)nc3NC2=O)cc1 (centres undefined)	> 20
CN(CC1Cc2c(N)nc(N)nc2NC1=O)c1ccc(C(=O)O)cc1 (centres undefined)	> 20
